These compounds were tested against T1, UDP-galactopyranose mutase (Escherichia coli K-12) (UniProt P37747) (assay: Inhibition of Escherichia coli UDP galactopyranose mutase at 25 mM).
T1 sequence (whole entry): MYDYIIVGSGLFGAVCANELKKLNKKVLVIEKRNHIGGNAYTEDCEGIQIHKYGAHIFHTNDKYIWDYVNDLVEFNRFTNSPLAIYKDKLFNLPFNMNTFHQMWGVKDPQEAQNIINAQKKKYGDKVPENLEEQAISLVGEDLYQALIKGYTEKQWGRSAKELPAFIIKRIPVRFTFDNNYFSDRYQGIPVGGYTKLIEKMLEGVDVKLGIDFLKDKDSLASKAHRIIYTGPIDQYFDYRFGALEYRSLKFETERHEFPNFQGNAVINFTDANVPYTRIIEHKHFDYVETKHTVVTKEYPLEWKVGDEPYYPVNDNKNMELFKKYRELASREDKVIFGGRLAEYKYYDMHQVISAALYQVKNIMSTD

Structure (SMILES)	inhibition [%]
CCOC(=O)CC[C@@H]1N[C@@H]([C@H](O)CO)[C@H](O)[C@H]1O	< 50
O=C1CC[C@H]2[C@H](O)[C@@H](O)[C@H]([C@H](O)CO)N12	< 50
OC[C@@H](O)[C@H]1[C@H](O)[C@@H](O)[C@@H]2CCCN12	< 50

— ChEMBL document CHEMBL1143760, “Stereoselective synthesis of beta-1-C-substituted 1,4-dideoxy-1,4-imino-D-galactitols and evaluation as UDP-galactopyranose mutase inhibitors” (Bioorg Med Chem, 2007)
